Data published in patent US6153605A, “Arylsecocholadiene derivatives” (priority 1997, dated 2000).
Read-outs that look alike come from different tables or passages of the source.

What was measured:
normal mouse skin [1] = assay: Activity assay hyperproliferative disorders: epidermal thickening (acanthosis) in hairless mice, oral; format: in vivo, hairless mice (Moro hr/hr); conditions: for ED50: Mus musculus, read-out: ED50 (dose causing halfmaximal epidermal thickening)
Procedure: Activity Assay Hyperproliferative Disorders
(§1) Orally administered vitamin D analogues can lead to epidermal thickening (acanthosis) in hairless mice. […] Compounds of formula I were tested for 4 days at different dosages in order to detect compounds which show this epidermal effect at subtoxic and non-toxic doses (dosage leading to slight or no weight loss). […] The calcitriol data were obtained from animals treated for three days.
(§2) Hairless mice (Moro hr/hr) received daily administrations of the test compound in arachis oil by gavage for 4 days, using 2-5 different dosages (3 fold increments; 2 animals per dosage group). The mice were sacrificed at day 5 and skin biopsies were taken, fixed in formalin and treated for histological evaluation. The epidermal thickness was measured at standard magnification using an occular grid. Daily measurements of body weight allows to judge toxicity (calcemic liability) and determine the non-toxic dose level defined as the dose which is tolerated without weight loss.
ED50 : dose (μg/kg) causing halfmaximal epidermal thickening
TI shift: shift in "therapeutic index", is defined as ratio ED50 /HT
for calcitriol divided by the ratio ED50 /HTP for the test compound

[2] = Oral tolerance (calcemic liability) by body weight in hairless mice; parameters: species or system hairless mice (Moro hr/hr); conditions: mouse, in vivo, oral gavage in arachis oil, daily for 4 days, read-out: HTDp.o. (highest tolerated oral dose without weight loss)
Procedure: as §1, §2
HTDp.o.: highest tolerated oral dose (μg/kg) without weight loss

normal mouse skin [3] = conditions: known antipsoriatics; cited from earlier work
[4] = 96 h, oral gavage in arachis oil, daily for 4 days

SMILES | ED50 (normal mouse skin [1]; [4]) [mg/kg] | ratio ED50/HTD (normal mouse skin [1]; oral, 4 days) | MTD [2] [mg/kg] | skin effect (epidermal thickening) on 4 days dosing, in words (normal mouse skin [1]; 4 days) | ED50 (normal mouse skin [1]; 72 h, oral, calcitriol treated for three days) [mg/kg] | ratio ED50/HTD (normal mouse skin [1]; oral, calcitriol treated for three days) | epidermal thickening effect on normal mouse skin, in words (normal mouse skin [3])
CC(C#Cc1ccccc1C(C)(C)O)[C@H]1CC[C@H]2/C(=C/C=C3C[C@@H](O)C[C@H](O)C3)CCC[C@]12C (stereo partly drawn) [Example 6, (7E)-(1R,3R)-23-[2-(1-Hydroxy-1-methyl-ethyl)-phenyl]-19,24-dinor-9,10-seco-chola-5,7-dien-22-yne-1,3-diol] | 2.5 | 63 | 0.04 |  |  |  | 
C=C1/C(=C\C=C2/CCC[C@]3(C)[C@@H]([C@@H](C)C#Cc4cccc(C(C)(C)O)c4)CC[C@@H]23)C[C@@H](O)C[C@@H]1O [Example 14, (5Z,7E)-(1S,3R,20R)-23-[3-(1-Hydroxy-1-methyl-ethyl)-phenyl)-24-nor-9,10seco-chola-5,7,10(19)-trien-22-yne-1,3-diol] | 7 | 7 | 1 |  |  |  | 
C=C1/C(=C\C=C2/CCC[C@]3(C)[C@@H]([C@@H](C)C#Cc4ccccc4C(C)(C)O)CC[C@@H]23)C[C@@H](O)C[C@@H]1O [Example 16, (5Z,7E)-(1S,3R,20R)-23-[2-(1-Hydroxy-1-methyl-ethyl)-phenyl)-24-nor-9,10-seco-chola-5,7,10(19)-trien-22-yne-1,3-diol] | 10 | 5 | 2 |  |  |  | 
C=C1/C(=C\C=C2/CCC[C@]3(C)[C@@H]([C@H](C)CCCC(C)(C)O)CC[C@@H]23)C[C@@H](O)C[C@@H]1O [calcitriol, 1,25-dihydroxycholecalciferol, reference compound] |  |  |  | could not be dosed for 4 days high enough to obtain this skin effect | 0.5 | 500 | show this effect on normal mouse skin
